Experimental data taken from US8865750B2, “Small molecule inhibitors of RGS proteins” (The Regents of The University of Michigan, priority 2011, dated 2014).
Read-outs that look alike come from different tables or passages of the source.

Tests used:
[1] = system: HEK293 cells; assay: Calcium mobilization induced by compound alone; format: cell-based; settings: Homo sapiens, HEK293; read-out: Calcium transient (% 50014);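 also: percent of response to 10 µM reference CCG-50014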
Procedure: Calcium Mobilization Experiments:
A stable cell line was developed based upon the HEK-293 Flp-In TREx cell line (Invitrogen, Carlsbad, Calif.) that stably express the muscarinic M3 receptor and have human RGS4 expression under doxycycline control. Cells were maintained in DMEM supplemented with 10% fetal bovine serum and Penicillin (100 units/ml)-Streptomycin (100 μg/ml) under 5% CO2 at 37° C. For experiments, cells were split into 96-well black, clear bottom, poly-D-lysine coated microtiter plates (Nunc, Cat. #152037) at a density of 20,000 cells/well in DMEM containing 10% fetal bovine serum and Penicillin (100 units/ml), Streptomycin (100 μg/ml). RGS4 expression was induced by supplementing the medium with 1 μg/mL doxycycline for 24-48 hours before experimentation. Cells were loaded with Fluo-4 No Wash dye in buffer for 30 minutes at 37° C. Compounds and/or carbachol were added to the wells and the fluorescence intensity was measured using a FlexStation (Molecular Devices, Sunnyvale, Calif.) plate reader. Data analysis was performed by calculating the area under the curve or maximal fluorescence intensity from a 120 second kinetic measurement.

[2] = target: RGS8 (Homo sapiens (Human), UniProt P57771); assay: FCPIA: Gαo binding to RGS8; settings: for RGS8 Hill Slope: Table 3; for IC50: read-out: RGS8 IC50
Sequence of RGS8 (P57771 other isoform, or with tags, fused parts or gaps): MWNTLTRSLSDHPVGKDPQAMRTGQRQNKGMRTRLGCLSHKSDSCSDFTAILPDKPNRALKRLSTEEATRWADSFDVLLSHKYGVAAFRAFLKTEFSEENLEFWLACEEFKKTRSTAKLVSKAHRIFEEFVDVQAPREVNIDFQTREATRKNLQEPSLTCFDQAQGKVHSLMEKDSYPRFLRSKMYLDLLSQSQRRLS
Excerpt: (§1) FCPIA Dose Response and Reversibility Experiments:

[3] = target: RGS4 (Homo sapiens (Human), UniProt P49798); assay: FCPIA: Gαo binding to RGS4; settings: for RGS4 Hill Slope: Table 3
Sequence of RGS4 (Homo sapiens (Human), UniProt P49798) (P49798 whole entry, looked up): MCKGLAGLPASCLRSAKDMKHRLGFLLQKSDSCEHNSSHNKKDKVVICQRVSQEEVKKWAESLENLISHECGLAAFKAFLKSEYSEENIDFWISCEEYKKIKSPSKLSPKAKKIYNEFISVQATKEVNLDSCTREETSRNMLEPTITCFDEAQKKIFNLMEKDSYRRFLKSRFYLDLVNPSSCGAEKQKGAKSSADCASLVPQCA
Excerpt: as §1

[4] = system: RGS4; assay: FCPIA: Gαo binding to RGS4; settings: Table 3
Excerpt: as §1

[5] = Table 3, duplex FCPIA, average of two experiments
[6] = Table 2, mean of two independent FCPIA experiments

Cc1ccc(-n2sc(=O)n(Cc3ccccc3)c2=O)cc1 [CCG-203724, 2-p-tolyl-4-benzyl-1,2,4-thiadiazolidine-3,5-dione]
Emax at 10 µM [1]: 177%
RGS8 Hill Slope [2]: −0.94
IC50 ([2]; Table 6, FCPIA): 7.5 µM
Fold Selectivity (R8/R4) [3]: 536
Fold Selectivity (RGS8 IC50/ RGS4 IC50) [3]: 536
Selectivity RGS4/ RGS8 [3]: 519
RGS4 Hill Slope [3]: −3.63
IC50 [3, 5]: 0.014 µM

O=c1sn(-c2ccc(Cl)cc2)c(=O)n1Cc1ccc(F)cc1 [CCG-203727, 2-(4-chlorophenyl)-4-(4-fluorobenzyl)-1,2,4-thiadiazolidine-3,5-dione]
Emax at 10 µM [1]: 158%
RGS8 Hill Slope [2]: −1.06
IC50 [2, 5]: 7.6 µM
Fold Selectivity (R8/R4) [3]: 543
Fold Selectivity (RGS8 IC50/ RGS4 IC50) [3]: 543
Selectivity RGS4/ RGS8 [3]: 564
RGS4 Hill Slope [3]: −1.66
IC50 [3, 5]: 0.014 µM

CCCCn1sc(=O)n(CC(C)C)c1=O [CCG-203764, 2-butyl-4-isobutyl-1,2,4-thiadiazolidine-3,5-dione]
Emax at 10 µM [1]: 142%
RGS8 Hill Slope [2]: −0.44
IC50 ([2]; Table 6, FCPIA): 98 µM
Fold Selectivity (R8/R4) [3]: 2513
Fold Selectivity (RGS8 IC50/ RGS4 IC50) [3]: 2513
Selectivity RGS4/ RGS8 [3]: 2540
RGS4 Hill Slope [3]: −0.87
IC50 [3, 5]: 0.039 µM

O=C1C=C(Br)C(=O)N1Cc1ccccc1 [CCG-203780]
IC50 [2, 6]: > 100 µM
IC50 [3, 6]: 32 µM

Cc1cccc(-n2sc(=O)n(Cc3ccccc3)c2=O)c1 [CCG-203785, 2-(3-methylphenyl)-4-benzyl-1,2,4-thiadiazolidine-3,5-dione]
Emax at 10 µM [1]: 145%
RGS8 Hill Slope [2]: −0.73
IC50 [2, 5]: 21.3 µM
Fold Selectivity (R8/R4) [3]: 561
Fold Selectivity (RGS8 IC50/ RGS4 IC50) [3]: 561
Selectivity RGS4/ RGS8 [3]: 558
RGS4 Hill Slope [3]: −1.13
IC50 [3, 5]: 0.038 µM

Cc1cccc(-n2sc(=O)n(Cc3cccc(Cl)c3)c2=O)c1 [S16, 2-m-tolyl-4-(3-chlorobenzyl)-1,2,4-thiadiazolidine-3,5-dione]
Emax at 10 µM [1]: 142%
RGS8 Hill Slope [2]: −0.95
IC50 [2, 5]: 10.1 µM
IC50 ([2]; Table 6, FCPIA): 10.1 µM
RGS4 Hill Slope [4]: −1.52

O=c1sn(-c2cccc(Cl)c2)c(=O)n1Cc1cccc(Cl)c1 [S17, 2-(3-chlorophenyl)-4-(3-chlorobenzyl)-1,2,4-thiadiazolidine-3,5-dione]
Emax at 10 µM [1]: 67.8%
RGS8 Hill Slope [2]: −1.66
IC50 [2, 5]: 21.1 µM
IC50 ([2]; Table 6, FCPIA): 21.1 µM
RGS4 Hill Slope [4]: −1.55

Cc1cccc(Cn2c(=O)sn(-c3ccccc3)c2=O)c1 [S19, 2-phenyl-4-(3-methylbenzyl)-1,2,4-thiadiazolidine-3,5-dione]
Emax at 10 µM [1]: 243%
RGS8 Hill Slope [2]: −1.17
IC50 [2, 5]: 8.4 µM
IC50 ([2]; Table 6, FCPIA): 8.4 µM
RGS4 Hill Slope [4]: −1.65

Cc1cccc(Cn2c(=O)sn(-c3cccc(C)c3)c2=O)c1 [S21, 2-m-tolyl-4-(3-methylbenzyl)-1,2,4-thiadiazolidine-3,5-dione]
Emax at 10 µM [1]: 63.3%
RGS8 Hill Slope [2]: −0.82
IC50 [2, 5]: 10.4 µM
IC50 ([2]; Table 6, FCPIA): 10.4 µM
RGS4 Hill Slope [4]: −1.79

COc1ccc(Cn2c(=O)sn(-c3ccccc3)c2=O)cc1 [S24, 2-phenyl-4-(4-methoxybenzyl)-1,2,4-thiadiazolidine-3,5-dione]
Emax at 10 µM [1]: 18.6%
RGS8 Hill Slope [2]: −0.77
IC50 [2, 5]: 7.2 µM
IC50 ([2]; Table 6, FCPIA): 7.2 µM
RGS4 Hill Slope [4]: −1.78

COc1ccc(Cn2c(=O)sn(-c3ccc(Cl)cc3)c2=O)cc1 [S25, 2-(4-chlorophenyl)-4-(4-methoxybenzyl)-1,2,4-thiadiazolidine-3,5-dione]
Emax at 10 µM [1]: 84.6%
RGS8 Hill Slope [2]: −0.73
IC50 [2, 5]: 9.9 µM
IC50 ([2]; Table 6, FCPIA): 9.9 µM
RGS4 Hill Slope [4]: −3.26

COc1ccc(Cn2c(=O)sn(-c3ccc(OC)cc3)c2=O)cc1 [S26, 2-(4-methoxyphenyl)-4-(4-methoxybenzyl)-1,2,4-thiadiazolidine-3,5-dione]
Emax at 10 µM [1]: 54.9%
RGS8 Hill Slope [2]: −0.81
IC50 [2, 5]: 17.6 µM
IC50 ([2]; Table 6, FCPIA): 17.6 µM
RGS4 Hill Slope [4]: −1.27

COc1ccc(Cn2c(=O)sn(-c3ccc(Cl)c(Cl)c3)c2=O)cc1 [S27, 2-(3,4-dichlorophenyl)-4-(4-methoxybenzyl)-1,2,4-thiadiazolidine-3,5-dione]
Emax at 10 µM [1]: 63.4%
RGS8 Hill Slope [2]: −1.50
IC50 [2, 5]: 36 µM
IC50 ([2]; Table 6, FCPIA): 36 µM
RGS4 Hill Slope [4]: −1.04

COc1ccc(Cn2c(=O)sn(Cc3ccc(C)cc3)c2=O)cc1 [S28, 2-(4-methylbenzyl)-4-(4-methoxybenzyl)-1,2,4-thiadiazolidine-3,5-dione]
Emax at 10 µM [1]: 169%
RGS8 Hill Slope [2]: −0.64
IC50 [2, 5]: 92.9 µM
IC50 ([2]; Table 6, FCPIA): 92.9 µM
RGS4 Hill Slope [4]: −2.42

O=c1sn(-c2ccccc2)c(=O)n1Cc1ccc(Cl)c(Cl)c1 [S29, 2-phenyl-4-(3,4-dichlorobenzyl)-1,2,4-thiadiazolidine-3,5-dione]
Emax at 10 µM [1]: 47.6%
RGS8 Hill Slope [2]: −0.80
IC50 [2, 5]: 7.5 µM
IC50 ([2]; Table 6, FCPIA): 7.5 µM
RGS4 Hill Slope [4]: −0.96

O=c1sn(-c2ccc(Cl)cc2)c(=O)n1Cc1ccc(Cl)c(Cl)c1 [S30, 2-(4-chlorophenyl)-4-(3,4-dichlorobenzyl)-1,2,4-thiadiazolidine-3,5-dione]
Emax at 10 µM [1]: -0.1%
RGS8 Hill Slope [2]: −0.76
IC50 [2, 5]: 16.7 µM
IC50 ([2]; Table 6, FCPIA): 16.7 µM
RGS4 Hill Slope [4]: −1.31

COc1ccc(-n2sc(=O)n(Cc3ccc(Cl)c(Cl)c3)c2=O)cc1 [S31, 2-(4-methoxyphenyl)-4-(3,4-dichlorobenzyl)-1,2,4-thiadiazolidine-3,5-dione]
Emax at 10 µM [1]: 202%
RGS8 Hill Slope [2]: −0.64
IC50 [2, 5]: 5.9 µM
IC50 ([2]; Table 6, FCPIA): 5.9 µM
RGS4 Hill Slope [4]: −0.86

O=c1sn(-c2ccc(Cl)c(Cl)c2)c(=O)n1Cc1ccc(Cl)c(Cl)c1 [S32, 2-(3,4-dichlorophenyl)-4-(3,4-dichlorobenzyl)-1,2,4-thiadiazolidine-3,5-dione]
Emax at 10 µM [1]: 49.6%
RGS8 Hill Slope [2]: −0.85
IC50 [2, 5]: 125 µM
IC50 ([2]; Table 6, FCPIA): 125 µM
RGS4 Hill Slope [4]: −0.87

Cc1ccc(Cn2sc(=O)n(Cc3ccc(Cl)c(Cl)c3)c2=O)cc1 [S33, 2-(4-methylbenzyl)-4-(3,4-dichlorobenzyl)-1,2,4-thiadiazolidine-3,5-dione]
Emax at 10 µM [1]: 51.7%
RGS8 Hill Slope [2]: −0.71
IC50 [2, 5]: 109 µM
IC50 ([2]; Table 6, FCPIA): 109 µM
RGS4 Hill Slope [4]: −1.33

Cc1ccc(-n2sc(=O)n(Cc3ccc(C(C)(C)C)cc3)c2=O)cc1 [S34, 2-p-tolyl-4-(4-t-butylbenzyl)-1,2,4-thiadiazolidine-3,5-dione]
Emax at 10 µM [1]: 18.9%
IC50 [2, 5]: > 100 µM
IC50 ([2]; Table 6, FCPIA): > 100 µM
RGS4 Hill Slope [4]: −1.36

CC(C)(C)c1ccc(Cn2c(=O)sn(-c3ccccc3)c2=O)cc1 [S35, 2-phenyl-4-(4-t-butylbenzyl)-1,2,4-thiadiazolidine-3,5-dione]
Emax at 10 µM [1]: 14.4%
IC50 [2, 5]: > 100 µM
IC50 ([2]; Table 6, FCPIA): > 100 µM
RGS4 Hill Slope [4]: −1.72

CC(C)(C)c1ccc(Cn2c(=O)sn(-c3ccc(C(C)(C)C)cc3)c2=O)cc1 [S36, 2-(4-t-butylphenyl)-4-(4-t-butylbenzyl)-1,2,4-thiadiazolidine-3,5-dione]
Emax at 10 µM [1]: 14.8%
IC50 [2, 5]: > 100 µM
IC50 ([2]; Table 6, FCPIA): > 100 µM
RGS4 Hill Slope [4]: −1.70

O=C1C=C(Br)C(=O)N1Cc1ccccc1 [S37, 1-benzyl-3-bromo-1H-pyrrole-2,5-dione]
IC50 ([2]; Table 6, FCPIA): 144 µM
IC50 ([3]; Table 6, FCPIA): 32.9 µM
